# Assay results from patent US11844790B2, “Methods of treating hidradenitis suppurativa” (CHEMOCENTRYX, INC., priority 2020, dated 2023).
# Marks after values point to notes of the source that are not given here.
# What was measured:
# [1] = system: patients with moderate HS (Hurley Stage II) or severe HS (Hurley Stage III); assay: Phase II AURORA clinical trial, Hidradenitis Suppurativa Clinical Response (HiSCR) and secondary efficacy endpoints; format: in vivo, human; conditions: for HiSCR (%) / HiSCR n/N / HiSCR Δ % vs placebo: week 12
# Description: (§1) The study is a randomized, double-blind, placebo-controlled, three group Phase 2 trial in approximately 390 subjects with moderate to severe hidradenitis suppurativa (Hurley stage II or III). Subjects will be randomized 1:1:1 to a treatment of 10 mg Avacopan twice daily, 30 mg Avacopan twice daily or placebo for 12 weeks. Other systemic treatments for HS including anti-TNF-αtreatments are prohibited. Stable antibiotic therapy with doxycycline or minocycline is allowed as specified in the protocol. Subjects treated with 10 mg or 30 mg twice daily during the blinded, placebo-controlled 12-week treatment period will be followed by an additional 24-week, active treatment period during which they will continue to receive the same dose regimen, either 10 mg or 30 mg Avacopan twice daily. Subjects on placebo who complete the blinded, placebo-controlled 12-week period will be re-randomized 1:1 to receive 10 mg or 30 mg Avacopan twice daily during the 24-week active treatment period. During the 24-week active treatment period the treatment assignment to 10 mg or 30 mg twice daily will not be disclosed to the patient, study personnel at the site or the sponsor. Thereafter, all subjects will be followed without study drug for 8 weeks before they exit the study.
# Subjects will be randomized 1:1:1 to receive 10 mg Avacopan twice daily, 30 mg Avacopan twice daily or matching placebo for 12 weeks in a double-blind, placebo-controlled manner.
# (§2) The primary objectives of this clinical trial include: • 1. Evaluation of the efficacy of Avacopan compared to placebo in subjects with Hurley Stage II or III hidradenitis suppurativa (HS) based on subjects achieving a Hidradenitis Suppurativa Clinical Response (HiSCR) after 12 weeks of treatment. HiSCR is defined as at least a 50% reduction in abscess and inflammatory nodule (AN) count with no increase in abscess count and no increase in draining fistula count at Week 12 relative to baseline. • 2. Evaluation of the safety of Avacopan compared to placebo in these subjects based on the adverse event incidence, changes from baseline in laboratory parameters, and vital signs Secondary Objectives
# The secondary objectives of this study include: • 1. Evaluation of the efficacy of Avacopan compared to placebo in these subjects include: • a. HiSCR: proportion of subjects achieving HiSCR by each timepoint, • b. The subject's global assessment of skin pain numeric rating scale (NRS), • c. The modified Sartorius score, and • d. Achieving an AN count of 0, 1, or 2 • 2. Assessment of subject reported outcomes including health-related quality-of-life changes based on the Short Form-36 version 2 (SF-36 v2), the EuroQOL-5D-5L (EQ-5D-5L), Hidradenitis Suppurativa Quality of Life (HiSQOL) Index, the Dermatology Life Quality Index (DLQI), and the Work Productivity and Activity Impairment Questionnaire: Specific Health Problem (WPAI: SHP) with Avacopan compared to placebo. • 3. Evaluation of the pharmacokinetic profile of Avacopan in subjects with HS. • 4. Evaluation of the safety and efficacy of Avacopan treatment from Day 1 by each timepoint up to Week 44 in subjects with HS. • 5. Evaluation of the efficacy of avacopan compared to placebo in these subjects include: • a. The Sartorius score, International HS Severity Scoring System (IHS4) score, HS Physician Global Assessment (HS-PGA), • b. Proportion of subjects who experienced flare, who experienced loss of response during Period 2, who received oral antibiotic rescue therapy or lesion intervention, and who received disallowed opioid pain therapy, and • c. The duration of flare in days. • 6. Evaluation of health-economic information. Study Treatments
# The International Hidradenitis Suppurativa Severity Score (IHS4) is simple to calculate and validated with the use of existing physician-derived outcomes such as HS-PGA, Hurley classification, MSS or Expert Opinion classification) and patient-reported outcome measure (DLQI). […]
# [2] = system: patients with moderate-to-severe HS; conditions: human, in vivo
# Description: as §1, §2
# The majority of TEAEs were related to underlying HS and were mild to moderate.
# [3] = Solubility of Avacopan as a function of pH; format: physicochemical; conditions: pH value of 3 or above (gastric fluid)
# [4] = Avacopan 10 mg BID, All patients
# [5] = Avacopan 10 mg BID, Hurley Stage II
# [6] = Avacopan 10 mg BID, Hurley Stage III
# [7] = Avacopan 30 mg BID, All patients
# [8] = Avacopan 30 mg BID, Hurley Stage II
# [9] = Avacopan 30 mg BID, Hurley Stage III
smiles,measurement,setting,value
Cc1ccc(NC(=O)[C@H]2CCCN(C(=O)c3c(C)cccc3F)[C@H]2c2ccc(NC3CCCC3)cc2)cc1C(F)(F)F [Avacopan],primary endpoint: proportion of all patients achieving HiSCR against placebo,"[1]; 10 mg BID and 30 mg BID, combined study population (Hurley Stage II plus III), after 12 weeks",not achieved with statistical significance at either dose level
same,proportion of all patients achieving HiSCR against placebo,"[1]; 30 mg BID, combined study population, after 12 weeks",numerical improvement
same,HiSCR response against placebo,"[1]; 30 mg BID, pre-specified population of Hurley Stage III (severe) HS patients",statistically significant higher response than placebo
same,HiSCR (%),[1]; [4],(22.4) %
same,HiSCR n/N,[1]; [4],30/134
same,HiSCR Δ % vs placebo,[1]; [4],−8.2%
same,HiSCR (%),[1]; [5],(21.4) %
same,HiSCR n/N,[1]; [5],18/84
same,HiSCR Δ % vs placebo,[1]; [5],−13.8%
same,HiSCR (%),[1]; [6],(24.0) %
same,HiSCR n/N,[1]; [6],12/50
same,HiSCR Δ % vs placebo,[1]; [6],1.8%
same,HiSCR (%),[1]; [7],(35.1) %
same,HiSCR n/N,[1]; [7],47/134
same,HiSCR Δ % vs placebo,[1]; [7],4.4%
same,HiSCR (%),[1]; [8],(31.0) %
same,HiSCR n/N,[1]; [8],27/87
same,HiSCR Δ % vs placebo,[1]; [8],−4.3%
same,HiSCR (%),[1]; [9],(42.6) %
same,HiSCR n/N,[1]; [9],20/47
same,HiSCR Δ % vs placebo,"[1]; Avacopan 30 mg BID, Hurley Stage III, p = 0.0349",20.3* %
same,"AN (abscesses and inflammatory nodules) count, % change from baseline to week 12 relative to placebo",[1]; Hurley Stage III patients,Favorable reductions
same,"International HS Severity Score (IHS4), % change from baseline to week 12 relative to placebo",[1]; Hurley Stage III patients,Favorable reductions
same,"abscess count, % change from baseline to week 12 relative to placebo",[1]; Hurley Stage III patients,Favorable reductions
same,"draining fistula count, % change from baseline to week 12 relative to placebo",[1]; Hurley Stage III patients,Favorable reductions
same,safety profile,[2],favorable safety profile
same,Serious TEAEs,[2]; 12 weeks,1.5%
same,Treatment emergent adverse events (TEAEs) of all types,[2]; 12 weeks,48.5%
same,solubility,[3],normally insoluble
